Test results as given in paper PMC7161699 (Acta Pharmaceutica Sinica. B, 2019).

Molecular target: PAK1 (Homo sapiens, UniProt Q13153)
Assay: Z'-LYTE kinase assay, Ser/Thr […] peptide
Format: biochemical

Chain of PAK1 (Q13153 2-545): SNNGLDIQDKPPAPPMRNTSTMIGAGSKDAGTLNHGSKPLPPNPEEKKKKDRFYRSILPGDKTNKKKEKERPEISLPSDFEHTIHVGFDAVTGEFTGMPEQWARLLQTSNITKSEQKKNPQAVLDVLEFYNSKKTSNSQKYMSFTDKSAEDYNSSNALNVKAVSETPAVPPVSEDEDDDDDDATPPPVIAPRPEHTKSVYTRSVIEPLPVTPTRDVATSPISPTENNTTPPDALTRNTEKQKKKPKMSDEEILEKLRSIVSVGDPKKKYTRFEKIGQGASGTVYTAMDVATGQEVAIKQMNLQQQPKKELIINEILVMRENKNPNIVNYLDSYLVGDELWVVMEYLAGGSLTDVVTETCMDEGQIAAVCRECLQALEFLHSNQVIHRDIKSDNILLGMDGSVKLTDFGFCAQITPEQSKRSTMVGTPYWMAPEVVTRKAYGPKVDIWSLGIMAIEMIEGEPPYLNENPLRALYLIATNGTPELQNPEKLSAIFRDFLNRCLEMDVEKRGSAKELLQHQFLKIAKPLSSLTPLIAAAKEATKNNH

Compound: Cc1ccc2[nH]c(=O)c3cc(C(=O)NCCCN(C)Cc4ccccc4)sc3c2c1 [CP734, N-[3-(benzyl-methylamino)propyl]-8-methyl-4-oxo-5H-thieno[4,5-c]quinoline-2-carboxamide]
- IC50: 15.3 µM
